From US20260070924A1, “INDAZOLE MACROCYCLES AND THEIR USE” (BLOSSOMHILL THERAPEUTICS, INC., priority 2022, published 2026)
pIC50: −log10 of the molar value.

Tests used:
[1] = from C=Cc1nn(C2CCCCO2)c2ccc(-c3cnn(C)c3OCCN(C)C(=O)c3c(I)c(Br)nn3C)cc12; cc_pd bond; Pd(OAc)2, NaHCO3, TBAC; DMF; 54.0 mM; 140.0 °C; 1.5 h
[2] = test system: Phospho-S6 Ribosomal Protein (S235/236); assay: Inhibition of kinase phosphorylation by Western Blot in MOLM-13; format: cell-based; details: Homo sapiens; MOLM-13 cells, 4 hour-incubation; read-out: pS6 MOLM-13 IC50
Protocol: (§1) Inhibition of kinase phosphorylation assay was performed by Western Blot using MV-4-11 and MOLM13 cell lines. Cells were plated in 24 well plates at 1 million cells per well and then treated with compounds at different concentrations, starting at 100 nM, 1:4 titration with DMSO as control. After 4 hour-incubation, cells were washed once with ice-cold PBS, and lysed in RIPA lysis buffer with protease and phosphatase inhibitors. The cell lysates were then sonicated and spun down, and 40 μg of proteins were separated by sodium dodecyl sulfate electrophoresis on a 4 to 12% Bis-Tris polyacrylamide gel and transferred onto nitrocellulose membranes using Bio-Rad Trans-Blot Turbo Transfer System (Bio-Rad). Blocking was performed using 3% BSA or 5% Non-fat dry milk (Fisher Scientific) in TBST (Tris-buffered saline containing 0.05% of Tween 20) (Bio-Rad Laboratories, Inc.). The membranes were incubated overnight with anti-phospho-FLT3 (Y589/Y591) (CST #60413), anti-phospho-STAT5 (Y694) (CST #4322), anti-Phospho-p44/42 MAPK (Erk1/2) (T202/Y204) (CST #9101), anti-Phospho-S6 Ribosomal Protein (S235/236) (CST #4858) and anti-β-Actin (CST #8457) each diluted 1000 times in 3% BSA in TBST. Membranes were washed with TBST and then incubated at room temperature for 1 hour with HRP-labeled anti-rabbit IgG polyclonal antibody (CST #7074) diluted 1000 times in 3% BSA. After TBST washing, blots were developed with a chemiluminescence system (SuperSignal West Femto Maximum Sensitivity Substrate, Pierce #34095). Luminescence was detected by LI-COR Odyssey M imaging system and luminescence intensity were quantified using Empiria Studio 2.2 software. Data was analyzed using GraphPad Prism 9 (GraphPad Software, San Diego, CA) to obtain IC50 values.

phospho-STAT5 (Y694) [3] = assay: as above; format: cell-based; details: Homo sapiens; MOLM-13 cells, 4 hour-incubation; read-out: pSTAT5 MOLM-13 IC50
Protocol: as §1

[4] = test system: Phospho-p44/42 MAPK (Erk1/2) (T202/Y204); assay: as above; format: cell-based; details: Homo sapiens; MOLM-13 cells, 4 hour-incubation; read-out: pERK MOLM-13 IC50
Protocol: as §1

[5] = test system: Phospho-S6 Ribosomal Protein (S235/236); assay: Inhibition of kinase phosphorylation by Western Blot in MV-4-11; format: cell-based; details: Homo sapiens, MV4-11; MV-4-11 cells, 4 hour-incubation; read-out: pS6 MV-4-11 IC50
Protocol: as §1

phospho-STAT5 (Y694) [6] = assay: as above; format: cell-based; details: Homo sapiens, MV4-11; MV-4-11 cells, 4 hour-incubation; read-out: pSTAT5 MV-4-11 IC50
Protocol: as §1

[7] = test system: Phospho-p44/42 MAPK (Erk1/2) (T202/Y204); assay: as above; format: cell-based; details: Homo sapiens, MV4-11; MV-4-11 cells, 4 hour-incubation; read-out: pERK MV-4-11 IC50
Protocol: as §1

| pIC50 [2] | pIC50 (phospho-STAT5 (Y694) [3]) | pIC50 [4] | pIC50 [5] | pIC50 (phospho-STAT5 (Y694) [6]) | pIC50 [7] | Structure (SMILES) | ring closure, yield of all isomers [1] [%] |
| --- | --- | --- | --- | --- | --- | --- | --- |
|  |  |  |  |  |  | CN1CCOc2c(cnn2C)-c2ccc3c(c2)c(nn3C2CCCCO2)/C=C/c2c(Br)nn(C)c2C1=O (stereo not shown) | 94.8 |
| 8.10 | 8.65 | 8.88 | 9.04 | 8.76 | 8.79 | CCc1nc(C(N)=O)c(Nc2ccc(N3CCC(N4CCN(C)CC4)CC3)c(OC)c2)nc1NC1CCOCC1 [Gilteritinib, reference compound] |  |
